One block for each compound: values may come before it. Calls of active or inactive are those of the source. The rule behind the calls is not given here.
Tests used:
H9c2 [1] = test: Induction of mitochondrial membrane potential loss in rat H9c2 cells assessed as increase in fluorescence intensity at 10 uM by TMRM dye based assay; assay type: cell-based
H9c2 [2] = test: Induction of mitochondrial membrane potential loss in rat H9c2 cells assessed as increase in fluorescence intensity at 10 uM in presence of rotenone by TMRM dye based assay; assay type: cell-based
H9c2 [3] = test: Induction of mitochondrial membrane potential loss in rat H9c2 cells assessed as increase in fluorescence intensity at 100 uM in presence of rotenone by TMRM dye based assay; assay type: cell-based
H9c2 [4] = test: Induction of mitochondrial membrane potential loss in rat H9c2 cells assessed as increase in fluorescence intensity at 50 uM by TMRM dye based assay; assay type: cell-based
Mus musculus [5] = test: Cardioprotective activity against cardiac ischemia/reperfusion induced C57BL/6J mouse model assessed as reduction in cardiac infarct size at 3.5 mg/kg, iv prior to 5 mins of myocardial ischemia and 2 hrs of reperfusion (Rvb= 45.4 +/- 1.8 %); assay type: functional; set-up: scale not given: the % may be the effect or the level left; conditions: time 125 min, 2.083 h
H9c2 [6] = test: Cytotoxicity against rat H9c2 cells assessed as reduction in cell survival at 50 uM incubated for 24 hrs by MTT assay; assay type: toxicity, cell-based; conditions: h9c2, 24 h
[7] = Inhibition of mouse heart mitochondrial F0F1-ATP synthase hydrolytic activity incubated for 10 mins by microplate reader analysis; assay type: mitochondria, Mitochondria
Mus musculus [8] = organism: Mus musculus; test: Effect on mPTP opening in C57BL6 mouse heart mitochondria assessed as number of calcium pulses by measuring green-5N fluorescence intensity at 10 to 1000 uM in presence of cyclosporin A by calcium retention capacity assay; conditions: dose 10-1000 µM
Mus musculus [9] = organism: Mus musculus; test: Effect on mPTP opening in C57BL6 mouse heart mitochondria assessed as number of calcium pulses by measuring green-5N fluorescence intensity at 10 to 1000 uM by calcium retention capacity assay; conditions: dose 10-1000 µM
H9c2 [10] = test: Induction of mitochondrial membrane potential loss in rat H9c2 cells assessed as increase in fluorescence intensity at 50 uM in presence of rotenone by TMRM dye based assay; assay type: cell-based
H9c2 [11] = test: Cytotoxicity against rat H9c2 cells assessed as reduction in cell viability at 100 uM incubated for 24 hrs by MTT assay; assay type: toxicity, cell-based; conditions: h9c2, 24 h
H9c2 [12] = test: Induction of mitochondrial membrane potential loss in rat H9c2 cells assessed as increase in fluorescence intensity at 3 uM by TMRM dye based assay; assay type: cell-based
H9c2 [13] = test: Induction of mitochondrial membrane potential loss in rat H9c2 cells assessed as increase in fluorescence intensity at 3 uM in presence of rotenone by TMRM dye based assay; assay type: cell-based
Mus musculus [14] = organism: Mus musculus; test: Inhibition of mouse heart mitochondrial F0F1-ATP synthase hydrolytic activity at 200 uM incubated for 10 mins by microplate reader analysis; conditions: Mitochondria
H9c2 [15] = test: Cytotoxicity against rat H9c2 cells assessed as reduction in cell viability at 50 to 100 uM incubated for 24 hrs by MTT assay; assay type: toxicity, cell-based; conditions: h9c2, 24 h, dose 50-100 µM
H9c2 [16] = test: Induction of mitochondrial membrane potential loss in rat H9c2 cells assessed as increase in fluorescence intensity at 10 to 100 uM in presence of rotenone by TMRM dye based assay; assay type: cell-based; conditions: dose 10-100 µM
H9c2 [17] = test: Cytotoxicity against rat H9c2 cells assessed as reduction in cell viability at 10 to 100 uM incubated for 24 hrs by MTT assay; assay type: toxicity, cell-based; conditions: h9c2, 24 h, dose 10-100 µM
H9c2 [18] = test: Cytotoxicity against rat H9c2 cells assessed as reduction in cell survival at 10 to 50 uM incubated for 24 hrs by MTT assay; assay type: toxicity, cell-based; conditions: h9c2, 24 h, dose 10-50 µM
H9c2 [19] = test: Cytotoxicity against rat H9c2 cells assessed as reduction in cell viability at 50 uM incubated for 24 hrs by MTT assay; assay type: toxicity, cell-based; conditions: h9c2, 24 h
Mus musculus [20] = organism: Mus musculus; test: Inhibition of mouse heart mitochondrial F0F1-ATP synthase hydrolytic activity at 200 uM incubated for 10 mins by microplate reader analysis relative to control; conditions: Mitochondria
H9c2 [21] = test: Cytotoxicity against rat H9c2 cells assessed as reduction in cell survival at 100 uM incubated for 24 hrs by MTT assay; assay type: toxicity, cell-based; conditions: h9c2, 24 h
Mus musculus [22] = test: Cardioprotective activity against cardiac ischemia/reperfusion induced C57BL/6J mouse model assessed as reduction in cardiac infarct size at 5 mg/kg, iv measured after 5 mins of myocardial ischemia and 2 hrs of reperfusion (Rvb= 45 +/- 2.2 %); assay type: functional; set-up: scale not given: the % may be the effect or the level left; conditions: time 125 min, 2.083 h
Mus musculus [23] = test: (§1) Cardioprotective activity against cardiac ischemia/reperfusion induced C57BL/6J mouse model assessed as effect on ERK1/2 level at 3.5 mg/kg, iv preincubated under ischemic condition for 30 mins followed by compound addition for 5 mins and subsequent incubation under reperfusion for 10 mins by Western blot analysis; assay type: functional, organism-based; conditions: time 15.0 min
H9c2 [24] = test: Cytotoxicity against rat H9c2 cells assessed as reduction in cell survival at 0.1 to 100 uM incubated for 24 hrs by MTT assay; assay type: toxicity, cell-based; conditions: h9c2, 24 h, dose 0.1-100 µM
Mus musculus [25] = test: Cardioprotective activity against cardiac ischemia/reperfusion induced C57BL/6J mouse model assessed as reduction in cardiac infarct size at 5 mg/kg, iv measured after 25 mins of myocardial ischemia and 2 hrs of reperfusion (Rvb= 47.8 +/- 3.4 %); assay type: functional; set-up: scale not given: the % may be the effect or the level left; conditions: time 145 min, 2.417 h
H9c2 [26] = test: Cytotoxicity against rat H9c2 cells assessed as reduction in cell survival at 10 to 100 uM incubated for 24 hrs by MTT assay; assay type: toxicity, cell-based; conditions: h9c2, 24 h, dose 10-100 µM
Mus musculus [27] = test: (§2) Cardioprotective activity against cardiac ischemia/reperfusion induced C57BL/6J mouse model assessed as increase in ATP level at 3.5 mg/kg, iv preincubated under ischemic condition for 30 mins followed by compound addition for 5 mins and subsequent incubation under reperfusion for 10 mins; assay type: functional, organism-based; conditions: time 15.0 min
Mus musculus [28] = test: as §1, with “GSK3beta” for “ERK1/2”; assay type: functional, organism-based; conditions: time 15.0 min
Mus musculus [29] = test: as §2, with “increase in GSK3beta phosphorylation at S9 fraction at 3.5” for “increase in ATP level at 3.5”, “10 mins by Western blot analysis” for “10 mins”; assay type: functional, organism-based; conditions: time 15.0 min
Mus musculus [30] = test: as §2, with “increase in Bax expression at 3.5” for “increase in ATP level at 3.5”, “10 mins by Western blot analysis” for “10 mins”; assay type: functional, organism-based; conditions: time 15.0 min
Mus musculus [31] = test: as §1, with “increase in” for “effect on”, “phosphorylation” for “level”; assay type: functional, organism-based; conditions: time 15.0 min
Mus musculus [32] = test: as §2, with “increase in Akt phosphorylation at 3.5” for “increase in ATP level at 3.5”, “10 mins by Western blot analysis” for “10 mins”; assay type: functional, organism-based; conditions: time 15.0 min
H9c2 [33] = test: Induction of mitochondrial membrane potential loss in rat H9c2 cells assessed as increase in fluorescence intensity at 50 to 100 uM in presence of rotenone by TMRM dye based assay; assay type: cell-based; conditions: dose 50-100 µM
Mus musculus [34] = test: as §2, with “increase in Bcl-XL expression at 3.5” for “increase in ATP level at 3.5”, “10 mins by Western blot analysis” for “10 mins”; assay type: functional, organism-based; conditions: time 15.0 min
H9c2 [35] = test: Induction of mitochondrial membrane potential loss in rat H9c2 cells assessed as increase in fluorescence intensity at 0.1 to 100 uM by TMRM dye based assay; assay type: cell-based; conditions: dose 0.1-100 µM
Mus musculus [36] = test: as §1, with “Akt” for “ERK1/2”; assay type: functional, organism-based; conditions: time 15.0 min
Mus musculus [37] = test: as §2, with “increase in cleaved caspase-3 expression at 3.5” for “increase in ATP level at 3.5”, “10 mins by Western blot analysis” for “10 mins”; assay type: functional, organism-based; conditions: time 15.0 min
Mus musculus [38] = test: Cardioprotective activity against cardiac ischemia/reperfusion induced C57BL/6J mouse model assessed as reduction in cardiac infarct size at 5 mg/kg, iv prior to 5 mins of myocardial ischemia and 2 hrs of reperfusion (Rvb= 45.4 +/- 1.8 %); assay type: functional; set-up: scale not given: the % may be the effect or the level left; conditions: time 125 min, 2.083 h
H9c2 [39] = test: Induction of mitochondrial membrane potential loss in rat H9c2 cells assessed as increase in fluorescence intensity at 100 uM by TMRM dye based assay; assay type: cell-based

IC50 [7]: 107 µM
Activity (Mus musculus [8]): inactive
Activity (Mus musculus [9]): inactive
Compound: COc1ccc(Cn2nc(-c3ccccc3)c3cc(Nc4ccc(N5CCN(C)CC5)cc4)nc(N4CCNCC4)c32)cc1
Activity (H9c2 [1]): inactive
Activity (H9c2 [2]): inactive
Activity (H9c2 [3]): Active
Activity (H9c2 [4]): inactive
Activity (Mus musculus [5]): 33.4%
Activity (H9c2 [6]): Non-Toxic
Activity (H9c2 [10]): Active
Activity (H9c2 [11]): Toxic

IC50 [7]: 65.6 µM
Compound: Oc1ccc(/C=C/c2cc(O)cc(O)c2)cc1 [RESVERATROL]

IC50 [7]: 303 µM
Compound: COc1cc2oc(-c3ccc(O)cc3O)c(C=O)c2c(O)c1CC=C(C)C

Compound: CC[C@@H]1/C=C/C=C/C[C@H](C)[C@@H](O)[C@](C)(O)C(=O)[C@H](C)[C@@H](O)[C@H](C)C(=O)[C@H](C)[C@@H](O)[C@H](C)/C=C/C(=O)O[C@H]2[C@@H](C)[C@@H](CC1)O[C@@]1(CC[C@@H](C)[C@@H](C[C@H](C)O)O1)[C@@H]2C
Activity (H9c2 [12]): inactive
Activity (H9c2 [1]): inactive
Activity (H9c2 [13]): Active
Activity (H9c2 [2]): inactive
IC50 [7]: 18.5 µM

inhibition (Mus musculus [14]): Active
IC50 [7]: 1980 µM
Compound: COc1ccc(Cn2nc(-c3cccc(F)c3)c3cc(Nc4ccc(N5CCN(C)CC5)cc4)nc(N4CCOCC4)c32)cc1

inhibition (Mus musculus [14]): Active
IC50 [7]: 164 µM
Compound: COc1ccc(Cn2nc(-c3cccc(F)c3)c3cc(Nc4ccc(N5CCN(C)CC5)cc4)nc(N4CCN(C)CC4)c32)cc1
Activity (H9c2 [15]): Toxic
Activity (H9c2 [16]): Active
Activity (H9c2 [17]): Non-Toxic

inhibition (Mus musculus [20]): 50%
IC50 [7]: 151 µM
Activity (Mus musculus [8]): inactive
Activity (Mus musculus [9]): inactive
Compound: COc1ccc(Cn2nc(-c3ccccc3)c3cc(Cl)nc(N4CCNCC4)c32)cc1
Activity (H9c2 [18]): Non-Toxic
Activity (H9c2 [1]): inactive
Activity (H9c2 [19]): Non-Toxic
Activity (H9c2 [2]): inactive
Activity (H9c2 [21]): Toxic
Activity (H9c2 [3]): Active
Activity (H9c2 [10]): Active
Activity (H9c2 [11]): Toxic

IC50 [7]: 85.5 µM
Activity (Mus musculus [8]): inactive
Activity (Mus musculus [9]): inactive
Compound: COc1ccc(Cn2nc(-c3ccccc3)c3cc(Nc4ccc(N5CCN(C)CC5)cc4)nc(N4CCN(C)CC4)c32)cc1
Activity (H9c2 [1]): inactive
Activity (H9c2 [2]): inactive
Activity (H9c2 [21]): Toxic
Activity (H9c2 [3]): Active
Activity (H9c2 [4]): inactive
Activity (Mus musculus [5]): 34.8%
Activity (H9c2 [6]): Non-Toxic
Activity (H9c2 [10]): Active
Activity (H9c2 [11]): Toxic

inhibition (Mus musculus [20]): 50%
IC50 [7]: 162 µM
Compound: Oc1ccc(/C=C/c2c3c(cc4c2[C@H](c2cc(O)cc(O)c2)[C@@H](c2ccc(O)cc2)O4)O[C@H](c2ccc(O)cc2)[C@H]3c2cc(O)cc(O)c2)cc1

Compound: O=c1c(O)c(-c2ccc(O)c(O)c2)oc2cc(O)cc(O)c12 [QUERCETIN]
IC50 [7]: 128 µM

inhibition (Mus musculus [14]): Active
IC50 [7]: 98.5 µM
Compound: COc1ccc(Cn2nc(-c3ccccc3)c3cc(Nc4ccc(N5CCN(C)CC5)cc4)nc(N4CCOCC4)c32)cc1
Activity (Mus musculus [22]): 23.1%
Activity (Mus musculus [23]): Active
Activity (H9c2 [24]): Non-Toxic
Activity (Mus musculus [25]): 40.4%
Activity (H9c2 [26]): Non-Toxic
Activity (Mus musculus [27]): Active
Activity (Mus musculus [28]): Active
Activity (Mus musculus [29]): Active
Activity (Mus musculus [30]): Active
Activity (Mus musculus [31]): Active
Activity (Mus musculus [32]): Active
Activity (Mus musculus [5]): 25.6%
Activity (H9c2 [33]): Active
Activity (Mus musculus [34]): Active
Activity (H9c2 [35]): inactive
Activity (Mus musculus [36]): Active
Activity (Mus musculus [37]): Active

IC50 [7]: 756 µM
Compound: Oc1ccc(/C=C/c2cc(O)cc3c2[C@H](c2cc(O)cc(O)c2)[C@@H](c2ccc(O)cc2)O3)cc1

IC50 [7]: 347 µM
Compound: O=C(Oc1cc(S(=O)(=O)c2ccccc2)ccc1[N+](=O)[O-])c1ccc(Cl)cc1
Activity (Mus musculus [38]): 39.6%
Activity (H9c2 [21]): Non-Toxic
Activity (H9c2 [10]): inactive
Activity (H9c2 [39]): inactive

Reference: ChEMBL document CHEMBL5390279, “Hydrolytic Activity of Mitochondrial F1FO-ATP Synthase as a Target for Myocardial Ischemia-Reperfusion Injury: Discovery and In Vitro and In Vivo Evaluation of Novel Inhibitors” (J Med Chem, 2023)
